Test system: Huh7 cells stably expressing DENV-3 replicon (strain D3MY05-34640)
Test: Luciferase reporter replicon assay, DENV-3
Format: cell-based
Conditions: on moving the 3-F group to the ortho position (compared with the 3-F analogue)

## O=C1CC2(C(=O)Nc3ccc(Cl)cc32)c2cnn(Cc3ccc(Cl)c(F)c3)c2N1 (stereo not shown) [Compound 22, 5-Chloro-1’-(4-chloro-3-fluorobenzyl)-5’,7’-dihydrospiro[indoline-3,4’-pyrazolo[3,4-b]pyridine]-2,6’(1’H)-dione]
  loss of potency against DENV-3: 20 fold

From publication PMC8848308 (Bioorganic & medicinal chemistry letters, 2020)
